Patent publication US20180163250A1, “Screening Broths Comprising Esculatin Compounds for the Detection of Specific Microorganisms” (Neogen Corporation, priority 2016, published 2018)
Structures can show the parent of a compound that is named as a salt.

Columns and labels:
Format in all cases: cell-based
[1] = test system: Listeria monocytogenes, NCTC5348 and NCTC10527; experiment: Pre- and post-incubation detection of enzymatic activity in Listeria express broth (LAB589)
Procedure: 3,4-cyclohexenoesculatin glucoside, was dissolved at 200 mg/ml in 50:50 mixture of dimethylformamide and water. The mixture was then added to pre-dispensed 10 ml volume samples of Listeria express broth (LAB589 from Lab M limited) as 25 μL additions from the prepared stock solutions. Additional broth samples without added chromogen were prepared and inoculated at the same time as the chromogen containing samples. The stock solution was then stored at −20° C. for 24 hours. A 0.5 Macfarlane standard suspension of Listeria monocytogenes, NCTC5348 and NCTC10527, was prepared from 18-24 hour cultures grown in tryptic soy broth (LAB004 from Lab M Limited) at 37° C. These were diluted so as to inoculate each sample with 100-1000 or 10,000-100,000 cfu. Samples were then incubated at 37° C. for 24 hours. The samples were then observed, and bacterial growth confirmed. 50 μL of a 250/mg/ml stock solution of ferric ammonium citrate was then added to each sample. Samples without 3,4-cyclohexenoesculatin glucoside chromogen were then supplemented with 25 μL additions from the stored 3,4-cyclohexenoesculatin glucoside stock solution and observed at ambient temperature for 30 minutes.

[2] = test system: Listeria monocytogenes NCTC 10257; experiment: Masking of fluorogenic reaction by CHE glucoside and ferric ammonium citrate in broth; settings: uv light
Procedure: 4-methylumbelliferyl-β-D glucopyranoside (MC633 from Sigma Aldrich) was dissolved in water at 100 mg/ml and 25 μL of this stock solution added to pre-dispensed 10 mL volumes of Lab589 (Lab M Limited) and Lab049 (Brain heart infusion broth Lab M limited). Listeria monocytogenes NCTC 10257 were prepared from 18-24 hour cultures grown in tryptic soy broth (LAB004 from Lab M Limited) at 37° C. These were diluted so as to inoculate each sample with 100-1000 cfu. Samples were then incubated at 37° C. for 24 hours. Samples were then observed and confirmed for bacterial growth, and further observed under an ultra violet light for fluorescence. The samples were then supplemented with 3,4-cyclohexenoesculatin glucoside (Biosynth C9218), from a 200 mg/ml in 50:50 mixture of dimethylformamide and water. 50 μL of a 250/mg/ml stock solution of ferric ammonium citrate was added to each sample, observing visually for blackening and under ultra violet light for fluorescence masking after 15 minutes incubation at ambient. Table 5 provides that 3,4-cyclohexenoesculatin glucoside can be used as an additional masking reagent to confirm fluorogenic based broth systems.

[3] = test system: methicillin resistant staphylococcus aureus strains; experiment: Growth and initial color change in MRSA screening broth (LAB588) containing the substrate; settings: for Initial color change indicating the presence of MRSA: LAB588 broth with cefoxitin, 100-1000 cfu
Procedure: (§1) CHE-phosphate, and 3,4-cyclohexenoesculatin diphosphate were dissolved at 200 mg/ml in a 50:50 mixture of dimethylformamide and water. 5-bromo-4-chloroindoxyl phosphate was dissolved at 200 mg/ml in a 50:50 mixture of ethanol and water. The mixtures of compounds were added individually to a MRSA broth (LAB588; Lab M limited) pre-dispensed to 10 ml volumes, after supplementation with cefoxitin selective agent, as 25 μL additions from the prepared stock solutions.
(§2) A 0.5 Macfarlane standard suspension of methicillin resistant staphylococcus aureus strains were prepared from 18-24 h cultures grown in tryptic soy broth (LAB004; Lab M Limited) at 37° C. These were diluted and added to the MRSA broth samples in an amount sufficient to inoculate each sample with 100-1000 colony forming units (cfu). Target concentration was achieved by diluting a culture to a target level and inoculating sets of tubes at different inoculum dilutions so as to achieve the target range. The actual quantity inoculated was confirmed by plating 50 μl of the dilution onto Tryptone soy agar (LAB011) and incubating the plates for 18-24 h at 37° C. and counting the resulting colonies. This information was used to determine which tubes had been inoculated within the target dosing range.
(§3) The broth is designed to selectively indicate a positive presence of MRSA by a yellow color, or a presumptive positive presence of MRSA by an orange color (Table 1). To the CHE-phosphate and 3,4-cyclohexenoesculatin diphosphate was added 50 μL of a 250/mg/ml stock solution of Ferric ammonium citrate and samples were allowed to incubate at ambient temperature for 5 minutes.

[4] = test system: phosphatase activity of methicillin resistant staphylococcus aureus; experiment: Blackening after addition of ferric ammonium citrate (free CHE, phosphatase activity) in MRSA broth; settings: for blackening after the addition of ferric ammonium citrate indicating the presence of free 3,4-cyclohexenoesculatin: 5 minutes at ambient temperature after FAC; for Color or masking reaction (blackening reaction, dark precipitate): MRSA broth, after ferric ammonium citrate
Procedure: as §1, §2, §3

[5] = L. monocytogenes NCTC 5348 100 cfu, glucoside added post incubation
[6] = L. monocytogenes NCTC 5348 100 cfu, glucoside added pre incubation
[7] = L. monocytogenes NCTC 5348 10000 cfu, glucoside added post incubation
[8] = L. monocytogenes NCTC 5348 10000 cfu, glucoside added pre incubation
[9] = L. monocytogenes NCTC 10527 100 cfu, glucoside added post incubation
[10] = L. monocytogenes NCTC 10527 100 cfu, glucoside added pre incubation
[11] = L. monocytogenes NCTC 10527 10000 cfu, glucoside added post incubation
[12] = L. monocytogenes NCTC 10527 10000 cfu, glucoside added pre incubation

With O=c1oc2cc(O)c(O[C@@H]3O[C@H](CO)[C@@H](O)[C@H](O)[C@H]3O)cc2c2c1CCCC2 [3,4-cyclohexenoesculatin glucoside] the “Color t = 0 minutes post iron addition” value [1, 5] was “yellow”, the “Color t = 15 minutes post iron addition” value [1, 5] was “Black” and the “Color t = 0 minutes post iron addition” value [1, 6] was “Black”. For the same compound, the “Color t = 15 minutes post iron addition” value [1, 6] was “Black”, the “Color t = 0 minutes post iron addition” value [1, 7] was “yellow” and the “Color t = 15 minutes post iron addition” value [1, 7] was “Black”. For the same compound, the “Color t = 0 minutes post iron addition” value [1, 8] was “Black”, the “Color t = 15 minutes post iron addition” value [1, 8] was “Black” and the “Color t = 0 minutes post iron addition” value [1, 9] was “yellow”. For the same compound, the “Color t = 15 minutes post iron addition” value [1, 9] was “Black”, the “Color t = 0 minutes post iron addition” value [1, 10] was “Black” and the “Color t = 15 minutes post iron addition” value [1, 10] was “Black”. The “Color t = 0 minutes post iron addition” value [1, 11] was “yellow”, the “Color t = 15 minutes post iron addition” value [1, 11] was “Black” and the “Color t = 0 minutes post iron addition” value [1, 12] was “Black”. The “Color t = 15 minutes post iron addition” value [1, 12] was “Black”, the “Time to strong black reaction” value ([1]; glucoside added post incubation) was “about 15 minutes” and the “Time to strong black reaction on the addition of ferric ammonium citrate” value ([1]; samples incubated with the glucoside) was “instantly”.
In the case of Cc1cc(=O)oc2cc(O[C@@H]3O[C@H](CO)[C@@H](O)[C@H](O)[C@H]3O)ccc12 [4-methylumbelliferyl-β-D glucopyranoside], the “Appearance T = 15 minutes post iron addition” value ([2]; LAB049 broth) is reported as “fluorescent under uv light”, the “Appearance t = 0 minutes post iron addition” value ([2]; LAB049 broth) is reported as “fluorescent under uv light” and the “Appearance T = 15 minutes post iron addition” value ([2]; LAb589 broth) is reported as “fluorescent under uv light”. The “Appearance t = 0 minutes post iron addition” value ([2]; LAb589 broth) was “fluorescent under uv light”.
For O=c1oc2cc(OP(=O)(O)O)c(OP(=O)(O)O)cc2c2c1CCCC2 [Diphosphate, 3,4-cyclohexenoesculatin diphosphate tetra-potassium salt], the “Initial color change indicating the presence of MRSA” value ([3]; MRSA 3) was “Growth (yellow)”, the “Initial color change indicating the presence of MRSA” value ([3]; MRSA 15) was “Growth (yellow)” and the “Initial color change indicating the presence of MRSA” value ([3]; MRSA 15A (clinical isolate)) was “Growth (yellow)”. For the same compound, the “Initial color change indicating the presence of MRSA” value ([3]; MRSA 15B (clinical isolate)) was “Growth (yellow)”, the “Initial color change indicating the presence of MRSA” value ([3]; MRSA 15C (clinical isolate)) was “Growth (yellow)” and the “Initial color change indicating the presence of MRSA” value ([3]; MRSA 16A (clinical isolate)) was “Growth (yellow)”. For the same compound, the “Initial color change indicating the presence of MRSA” value ([3]; MRSA 16B (clinical isolate)) was “Growth (yellow)”, the “Initial color change indicating the presence of MRSA” value ([3]; MRSA 16C (clinical isolate)) was “Growth (yellow)” and the “Inhibition of the growth of MRSA” value ([3]; MRSA broth LAB588, summary of Table 1) was “not inhibitory”. For the same compound, the “Initial color change indicating the presence of MRSA” value ([3]; S. aureus NCTC 12493) was “Growth (yellow)”, the “blackening after the addition of ferric ammonium citrate indicating the presence of free 3,4-cyclohexenoesculatin” value (shortened to “blackening … of free 3,4-cyclohexenoesculatin”) ([4]; MRSA 3) was “No change” and the “blackening … of free 3,4-cyclohexenoesculatin” value ([4]; MRSA 15) was “No change”. The “blackening … of free 3,4-cyclohexenoesculatin” value ([4]; MRSA 15A (clinical isolate)) was “No change”, the “blackening … of free 3,4-cyclohexenoesculatin” value ([4]; MRSA 15B (clinical isolate)) was “No change” and the “blackening … of free 3,4-cyclohexenoesculatin” value ([4]; MRSA 15 C (clinical isolate)) was “No change”. For the same compound, the “blackening … of free 3,4-cyclohexenoesculatin” value ([4]; MRSA 16A (clinical isolate)) was “No change”, the “blackening … of free 3,4-cyclohexenoesculatin” value ([4]; MRSA 16B (clinical isolate)) was “No change” and the “blackening … of free 3,4-cyclohexenoesculatin” value ([4]; MRSA 16 C (clinical isolate)) was “No change”. The “Color or masking reaction (blackening reaction, dark precipitate)” value [4] was “does not produce the same dark precipitate” and the “blackening … of free 3,4-cyclohexenoesculatin” value ([4]; S. aureus NCTC 12493) was “No change”.
With O=P(O)(O)Oc1c[nH]c2ccc(Br)c(Cl)c12 [Indoxyl phosphate, 5-bromo-4-chloroindoxyl phosphate, reference compound] the “Initial color change indicating the presence of MRSA” value ([3]; MRSA 3) was “Growth (orange)”, the “Initial color change indicating the presence of MRSA” value ([3]; MRSA 15) was “Growth (orange)” and the “Initial color change indicating the presence of MRSA” value ([3]; MRSA 15A (clinical isolate)) was “Growth (orange)”. The “Initial color change indicating the presence of MRSA” value ([3]; MRSA 15B (clinical isolate)) was “Growth (orange)”, the “Initial color change indicating the presence of MRSA” value ([3]; MRSA 15C (clinical isolate)) was “Growth (orange)” and the “Initial color change indicating the presence of MRSA” value ([3]; MRSA 16A (clinical isolate)) was “Growth (orange)”. The “Initial color change indicating the presence of MRSA” value ([3]; MRSA 16B (clinical isolate)) was “Growth (orange)”, the “Initial color change indicating the presence of MRSA” value ([3]; MRSA 16C (clinical isolate)) was “Growth (orange)” and the “Initial color change indicating the presence of MRSA” value ([3]; S. aureus NCTC 12493) was “Growth (orange)”. For the same compound, the “Color or masking reaction (blackening reaction, dark precipitate)” value [4] was “no detectable color or masking reaction”.
